Counter-ions that a name gives are not always drawn. Like-named read-outs stand apart in the source and are kept apart here.
Assays:
[1] = test system: HeLa-ACE2 cells; experiment: cells; format: cell-based, human; conditions: Homo sapiens, HeLa-ACE2, read-out: HeLa-ACE-2 EC50 [μM] (Geomeans, n ≥ 2)
[2] = test system: SARS-CoV-2; experiment: Checkerboard synergy study with remdesivir (ZIP model, synergyfinder); format: cell-based
[3] = test system: SARS-CoV-2; experiment: Time of addition (TOA) assay in HeLa-ACE2 cells; format: cell-based; conditions: for activity when treatment initiated at 1 hpi: 10 μM, HeLa-ACE2, time course 4 to 24 hpi
[4] = test system: SARS-CoV-2; experiment: SARS-CoV-2 primary ALI HBEC model; format: cell-based; conditions: apical washes 72 hpi
Experimental: SARS-CoV-2 primary ALI HBEC model. Normal primary human bronchial epithelial cells (HBECs) (Lonza) were cultured in Millicell-96 cell culture insert plates with 1 μm PET filters (Sigma) at an air liquid interface for at least 4 weeks using PneumaCult™-ALI Medium (Stemcell Technologies). Briefly, the HBECs were first expanded in cell culture flasks before seeding 10,000 cells per well submerged in PneumaCult™-Ex Plus Medium. After 1 week, the cells were switched into PneumaCult™-ALI Medium and medium was removed from the apical surface. The air liquid interface was maintained, and the medium exchanged every 2-3 days for at least 4 weeks to allow for differentiation of the cells. Prior to infection, the apical surface was rinsed once with DPBS and compounds were added to the basolateral chamber. 20,000 PFU SARS-CoV-2 strain USA-WA1/2020 were added to the apical surface in 50 μL PBS and allowed to incubate for 2 h. The inoculum was then removed, and the cells rinsed once with DPBS. The medium was exchanged, and fresh compound added at 24 and 48 h post-infection. Apical washes were collected at 72 h post-infection by adding 100 μL DPBS to the apical surface for 15 minutes. RNA was isolated from the apical washes using the PureLink™ Pro 96 Viral RNA/DNA Purification Kit (Thermo Fisher) and analyzed for viral RNA levels by RT-qPCR using the SuperScript™ III Platinum™ One-Step qRT-PCR Kit (Thermo Fisher) and the 2019-nCoV N1 CDC Primers and Probe set (Integrated DNA Technologies). A standard curve was generated by isolating RNA from serial dilutions of the stock virus and used to determine the PFU equivalents/mL for each sample. The viral load reductions were then determined for each experimental compound treatment compared to the neutral DMSO control and plotted in log scale. Cytotoxicity was assessed by measuring LDH activity in the basolateral media using a Cytotoxicity Detection kit (LDH) (Sigma) following the manufacturer's instructions. […] Technical triplicates were run for both antiviral and cytotoxicity readouts. […]

[5] = test system: SARS-CoV-2
[6] = test system: SARS-CoV-2; remark: listed apart in the source
[7] = in vitro; conditions: human
[8] = human, oral; cited from earlier work
[9] = test system: SARS-CoV-2; experiment: microbe, parasite or virus in culture
[10] = rat, oral; cited from earlier work
[11] = mouse, cited from earlier work
[12] = dog, oral; cited from earlier work
[13] = test system: SARS-CoV-2; experiment: Golden Syrian Hamster SARS-CoV-2 efficacy model; format: in vivo; conditions: for live viral titers in the lungs: day 5, plaque assay
[14] = Pharmacokinetic studies in Syrian hamsters; format: in vivo; conditions: single 500 mg/kg PO dose, hamster plasma
Experimental: Pharmacokinetic Studies. Pharmacokinetic studies were conducted at Scripps Research Institute's Animal Models Core in accordance with IACUC guidelines (IACUC Protocol #09-0004-5). Eight-week old male Syrian Hamsters (Charles River) (three per group) were dosed PO as indicated for each compound and formulation. Plasma concentration of each test article was monitored up to 48 h. Nelfinavir was formulated in 10% DMSO/90% corn oil and MK-4482 was formulated in 10% PEG400/2.5% Cremaphor RH40 for both pharmacokinetic and efficacy studies.

[15] = test system: HeLa-ACE2 cells; conditions: human
[16] = COVID-19 patients; shortened from 15; cited from earlier work
[17] = in vivo; cited from earlier work
[18] = test system: SARS-CoV-2; experiment: microbe, parasite or virus in culture; conditions: Severe acute respiratory syndrome coronavirus 2, Calu-3, read-out: Calu-3 SARS-CoV-2 EC50
[19] = CC50 [μM] (Geomeans, n ≥ 2 except where indicated: *n = 1)
[20] = Severe acute respiratory syndrome coronavirus 2, HeLa-ACE2, 24 h, read-out: CoV-2 EC50 [μM] (Geomeans, n ≥ 2)
[21] = Severe acute respiratory syndrome coronavirus 2, HeLa-ACE2, read-out: SARS CoV-2 EC50 (μM)
[22] = Severe acute respiratory syndrome coronavirus 2, HeLa-ACE2, read-out: SARS-CoV-2 EC50

Structure (SMILES) | EC50 [1] | Synergy score with remdesivir (δ) ([2]; Table 3) | activity when treatment initiated at 1 hpi [3] | viral replication in ALI-HBECs [4] | HeLa-ACE2 CC50/CoV-2 EC50 [5] | activity in Calu-3 infection assay [6] | CC50 [7, 19] | CC50 ([7]; Uninfected HeLa-ACE2 CC50 (μM)) | Cmax [8] | t1/2 [8] | EC50 [9, 20] | EC50 [9, 21] | also measured
Cc1cccc(/C=N/Nc2cc(N3CCOCC3)nc(OCCc3ccccn3)n2)c1 [Apilimod] | > 9.6 µM | 3.57 | Loss of activity | did not | >4353.33 | not active | > 27.8 µM | > 27.8 µM | ~600 nM | ~3 h (human, oral)(27) | < 0.006 µM | < 0.006 µM | interaction with remdesivir [2]: additive; classification as entry inhibitor in HeLa-ACE2 cells [3]: entry inhibitors; increase in EC50 from MOI=1 to MOI=26 [5]: 3.7 fold; CC50 ([7]; uninfected HeLa-ACE2 CC50): > 40 µM; EC50 [9, 22]: 0.184 µM
COc1cc(-n2cnc3cc(-c4ccc(Cl)cc4)sc3c2=O)ccc1OCCN1CCCC1 [GW-803430] |  |  |  |  | 11.16 |  | 18.9 µM |  |  |  | 1.7 µM |  | Cmax [10]: ~585 nM; t1/2 [11]: ~11 h (mouse)(38)
O=S(=O)(Nc1ccc(CCNC[C@H](O)c2cccnc2)cc1)c1ccc(-c2nc(-c3ccc(C(F)(F)F)cc3)cs2)cc1 [L 796568] | 3.14 µM |  |  |  | 5.28 |  | 5.51 µM | 5.51 µM |  |  | 1.04 µM | 1.04 µM | Cmax [12]: ~300 nM; t1/2 [12]: ~14 h (dog, oral)(32)
CC(C)C(=O)OC[C@H]1O[C@@H](n2ccc(NO)nc2=O)[C@H](O)[C@@H]1O [MK-4482/EIDD-2801/Molnupiravir, Molnupiravir] |  |  |  |  | >4.21 |  | > 39.8 µM |  |  |  | > 9.45 µM |  | viral reduction compared to vehicle control ([13]; 50 mg/kg PO BID, day 5): 99%; live viral titers in the lungs ([13]; 150 mg/kg PO BID): undetectable; host immune response (RNA Seq on hamster lungs) ([13]; 500 mg/kg PO BID): near-complete protection from host immune response; live viral titers in the lungs ([13]; 500 mg/kg PO BID): undetectable; lung histological examination ([13]; MK-4482-treated hamsters vs vehicle): protected; time over HeLa-ACE2 and Calu-3 EC50 [14]: ≥ 7 h; activity in HeLa-ACE2 infection assay [5]: not active
CCC(CC)COC(=O)[C@H](C)N[P@](=O)(OC[C@H]1O[C@@](C#N)(c2ccc3c(N)ncnn23)[C@H](O)[C@@H]1O)Oc1ccccc1 [Remdesivir] | > 9.6 µM |  | effectively blocked the infection | inhibited viral replication | 78.7 |  |  | > 8.46 µM | ~5000 nM | ~1 h (human oral)(15) | 0.127 µM | 0.127 µM | increase in EC50 from MOI=1 to MOI=26 [5]: 2.7 fold; EC50 ([5]; read-out: SARS-CoV-2 EC50): 300 nM; CC50 [15]: 9970 nM; median time to recovery [16]: 11 days; mortality of hospitalized COVID-19 patients [17]: failed to reduce mortality; CC50 ([7]; uninfected HeLa-ACE2 CC50): > 40 µM; EC50 [9, 22]: 0.194 ± 0.02 µM; EC50 [18]: 444 nM
CCN1CCC(c2cc(C)c3nc(-c4cc5c(C)nc(C)cn5n4)cc(=O)n3c2)CC1 [SMN-C3] | > 8.14 µM | −0.37 |  |  | 5.12 |  | 7.16 µM | 7.16 µM |  |  | 1.4 µM | 1.4 µM | Synergy score with remdesivir (δ) ([2]; Table 1, ZIP model, δ>10 synergy, δ<−10 antagonism, between additive): −0.365; Cmax ([11]; oral): ~2000 nM
CCN(CCO)CCCC(C)Nc1ccnc2cc(Cl)ccc12 (centres unmarked) [hydroxychloroquine, nasal, hydroxychloroquine] |  | −1.572 | Loss of activity |  | >40.04 | not active | > 18.3 µM | > 18.3 µM | ~1700 nM | ~55 h (human oral)(18) | 0.458 µM | 0.458 µM | classification as entry inhibitor in HeLa-ACE2 cells [3]: entry inhibitors; mortality of hospitalized COVID-19 patients [17]: failed to reduce mortality
N=C(N)c1ccc2cc(OC(=O)c3ccc(N=C(N)N)cc3)ccc2c1 [nafamostat mesylate] |  |  |  | inhibited viral replication |  | active |  |  |  |  |  |  | activity in HeLa-ACE2 infection assay ([5]; text b101-b103): not active
Cc1c(O)cccc1C(=O)N[C@@H](CSc1ccccc1)[C@H](O)CN1C[C@H]2CCCC[C@H]2C[C@H]1C(=O)NC(C)(C)C [nelfinavir] |  |  |  |  |  |  |  |  |  |  |  |  | protection from weight loss and viral replication ([13]; 500 mg/kg PO BID): failed to protect animals from weight loss and viral replication; time over Calu-3 SARS-CoV-2 EC50 [14]: ~3 h

Source: patent US20230346820A1, “METHODS AND COMPOSITIONS FOR THE TREATMENT OF SARS-COV-2” (priority 2020, published 2023)
